# According to ChEMBL document CHEMBL1153711, “Synthesis and antimycobacterial evaluation of novel 5,6-dimethoxy-1-oxo-2,5-dihydro-1H-2-indenyl-5,4-substituted phenyl methanone analogues” (Bioorg Med Chem Lett, 2009):
# Test system: Mycobacterium tuberculosis
# Assay: Antimycobacterial activity against Mycobacterium tuberculosis H37Rv by agar dilution method
# Assay type: functional
row,SMILES,MIC [µM]
1,COc1cc2c(cc1OC)C(=O)C(C(=O)c1c(Cl)cccc1Cl)C2 (stereo not drawn),2.48
2,COc1cc2c(cc1OC)C(=O)C(C(=O)c1cccc([N+](=O)[O-])c1)C2 (stereo not drawn),3.46
3,COc1cc2c(cc1OC)C(=O)C(C(=O)c1ccc(Br)cc1)C2 (stereo not drawn),4.94
4,COc1cc2c(cc1OC)C(=O)C(C(=O)c1ccc(C#N)cc1)C2 (stereo not drawn),> 6.25
5,COc1cc2c(cc1OC)C(=O)C(C(=O)c1ccc(N(C)C)cc1)C2 (stereo not drawn),5.94
6,COc1ccc(C(=O)C2Cc3cc(OC)c(OC)cc3C2=O)cc1 (stereo not drawn),> 6.25
7,COc1cc2c(cc1OC)C(=O)C(C(=O)c1ccc(Cl)cc1)C2 (stereo not drawn),1.52
8,COc1cc2c(cc1OC)C(=O)C(C(=O)c1ccccc1)C2 (stereo not drawn),6.62
9,COc1ccc(C(=O)C2Cc3cc(OC)c(OC)cc3C2=O)cc1OC (stereo not drawn),> 6.25
10,COc1cc2c(cc1OC)C(=O)C(C(=O)c1cc(OC)c(OC)c(OC)c1)C2 (stereo not drawn),> 6.25
11,COc1cc2c(cc1OC)C(=O)C(C(=O)c1ccc(F)cc1)C2 (stereo not drawn),0.1
12,COc1cc2c(cc1OC)C(=O)C(C(=O)c1ccccc1Cl)C2 (stereo not drawn),1.82
13,NNC(=O)c1ccncc1 [ISONIAZID],0.75
